The results in this text go back to patent US20230097866A1, “BACTERIAL TOPOISOMERASE INHIBITORS DERIVED FROM ISOMANNIDE” (Ohio State Innovation Foundation, priority 2020, published 2023).

Series [1] addresses S. aureus DNA gyrase (Staphylococcus aureus, UniProt P20831). Description: Inhibition of DNA gyrase, biochemical assay (Inspiralis). The settings on record: S. aureus DNA gyrase; Inspiralis, Ltd.; read-out: Gyrase IC50.
In series [2] the target is Dopamine transporter (Homo sapiens, UniProt Q01959). Kind of series: Off-target safety panel, dopamine transporter. The series is classed as binding. The settings on record: duplicate, read-out: % Inhibition at 100 μM conc., Dopamine transporter. As to the method:
Potential off-target pharmacology for compound 6 was also evaluated by screening in duplicate against a panel (Bowes, J., et al., Reducing Safety-Related Drug Attrition: The Use of in vitro Pharmacological Profiling. Nat. Rev. Drug Disc. 2012, 11, 909-922) of 44 receptors, enzymes, etc. Of the 44 potential targets, only five were inhibited by >50% at a concentration of 100 μM (Table 7).

The target of series [3] is T1, hKCNQ1/hminK (Homo sapiens, UniProt P51787).
T1 construct: expressed in transfected cells
Kind of series: KCNQ1/hminK QPatch CiPA assay. The format is cell-based. The settings on record: mean, duplicate, read-out: % Inhibition KCNQ1 (peak current). The text has this: (§1) Early drug discovery programs commonly assess hERG inhibition as the only indicator of potential cardiovascular safety concerns. Researchers have recently recommended a more rigorous evaluation of multiple cardiac ion channels to provide a more comprehensive cardiovascular risk assessment (Fermini, B., et al., A New Perspective in the Field of Cardiac Safety Testing through the Comprehensive In Vitro Proarrhythmia Assay Paradigm. J. Biomolec. Screening 2016, 21, 1-11). Given the promising initial results for 6, further evaluation was undertaken (in duplicate) in a Comprehensive in vitro Proarrhythmia Assay (CiPA) eight assay panel run on the QPatch HT (Sophion, Denmark) automated patch clamp system at three concentrations (3, 30, and 100 μM). All data were filtered for seal quality, seal drop, and current amplitude. A stock solution of the test compound at 30 mM concentration was prepared in DMSO.
The parameters measured were the maximum outward current evoked on stepping to 60 mV from the test pulse. The peak current amplitude was calculated before and after compound addition and the amount of block was assessed by dividing the Test compound current amplitude by the Control current amplitude. Control is the mean hKCNQ1/hminK current amplitude collected 15 seconds at the end of the control; Test Compound is the mean hKCNQ1/hminK current amplitude collected in the presence of test compound at each concentration. The positive control was chromanol 293B.
(In general: In patch-clamp work, channel activity is measured electrically.)

Series [4] deals with T2, Kir2.1 Human Potassium Ion Channel (Homo sapiens, UniProt P63252).
T2 construct: expressed in transfected cells
T2 sequence (P63252 1-427): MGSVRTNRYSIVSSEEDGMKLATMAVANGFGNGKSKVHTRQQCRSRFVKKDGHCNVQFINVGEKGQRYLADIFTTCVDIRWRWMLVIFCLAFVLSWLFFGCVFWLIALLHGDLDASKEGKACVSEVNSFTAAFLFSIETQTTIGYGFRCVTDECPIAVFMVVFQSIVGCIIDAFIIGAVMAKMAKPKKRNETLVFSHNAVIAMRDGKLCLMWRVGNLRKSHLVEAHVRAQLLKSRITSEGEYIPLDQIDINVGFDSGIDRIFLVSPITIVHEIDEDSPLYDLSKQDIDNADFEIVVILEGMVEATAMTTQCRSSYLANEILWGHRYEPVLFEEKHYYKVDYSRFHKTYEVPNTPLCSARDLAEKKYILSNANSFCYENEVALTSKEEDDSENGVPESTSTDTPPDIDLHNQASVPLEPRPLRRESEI
Description: Kir2.1 QPatch CiPA assay. The format is cell-based. The settings on record: mean, duplicate.
Text: as §1
The parameters measured were the maximum inward current evoked on stepping to −120 mV from the test pulse. The peak current amplitude was calculated before and after compound addition and the amount of block was assessed by dividing the Test compound current amplitude by the Control current amplitude. Control is the mean hKir2.1 current amplitude collected 15 seconds at the end of the control; Test Compound is the mean hKir2.1 current amplitude peak and end collected in the presence of test compound at each concentration. The positive control was barium chloride.

In series [5] the test system is S. aureus ATCC 29213. Kind of series: MIC panel (Laboratory Specialists, Inc.), S. aureus ATCC 29213. The settings on record: Staphylococcus aureus, ATCC29213, read-out: MIC S. aureus ATCC 29213 (n = 3); Cmpd. 6; CLSI broth microdilution; very small pinpoint growth up to 4 μg/mL. The series is classed as cell-based. In general terms: Broth dilution looks for growth in wells or tubes with falling amounts of substance.

Series [6] has as its target T3, Nav1.5 Late Current Human Ion Channel (Homo sapiens, UniProt Q14524).
T3 construct: expressed in transfected cells
Kind of series: Nav1.5 late current agonist QPatch CiPA assay. The format is cell-based. The settings on record: normalized to ATXII response.
Text: as §1
The parameters measured were the degree of activation of inward current (charge) evoked on stepping to −15 mV from the test pulse. The peak and ramp current (charge) amplitude was calculated before and after compound addition and the amount of current (charge) was assessed by dividing the Test compound current (charge) by the Control current (charge). Control is the mean hNav1.5 late current (charge) collected 15 seconds at the end of the control; Test Compound is the mean hNav1.5 current (charge) collected in the presence of test compound at each concentration. Changes in charge were normalized to the maximum response of the EC50 of ATXII (positive control).

The subject of series [7] is S. aureus ATCC 29213. Description: MIC, CLSI broth microdilution, S. aureus ATCC 29213. The series is classed as cell-based. The settings on record: Staphylococcus aureus, ATCC29213.
Series [8] has as its target T4, CYP2B6 (Homo sapiens, UniProt P20813).
T4 construct: incubated with human liver microsomes (mixed gender, pool of 50 donors, 0.1 mg/mL); from tissue; host or cells: human liver microsomes, pool of 50 donors
Description: CYP450 inhibition in human liver microsomes, CYP2B6. The series is classed as in vitro ADME. The settings on record: 10 μM. As to the method: CYP450 inhibition assays was conducted using individual enzyme substrates and inhibitors instead of a cocktail to avoid interferences. CYP450 isoforms tested included the following: CYP1A2, CYP2B6, CYP2C8, CYP2C9, CYP2C19, CYP2D6, and CYP3A4. Each test compound was screened at a final concentration of 10 μM. Each test compound was incubated with human liver microsomes (mixed gender, pool of 50 donors, 0.1 mg/mL), CYP450-selective probe substrates, and co-factors (NADPH, MgCl2) in phosphate buffer (pH 7.4) for 10-30 min in a 96-well plate at 37° C. The reactions were stopped by transferring the reaction mixture to acetonitrile/methanol. Samples were mixed and centrifuged, and the supernatants analyzed by LC-MS/MS to quantify percent inhibition relative to vehicle control.

Series [9] concerns Acinetobacter baumannii LSI-2957. Description: MIC panel (Laboratory Specialists, Inc.), A. baumannii. The format is cell-based. The settings on record: LSI2957, Cmpd. 6, CLSI broth microdilution.
[10] abbreviates: read-out: % Inhibition Kir2.1 (end current).
Where [11] appears, read: read-out: % Inhibition Kir2.1 (peak current).

Structures are written as SMILES. Values after ≈ are worked out from the molar mass of the structure shown. Read-outs that look alike come from different tables or passages of the source. A value given as a limit tells only on which side of the number the result lay.

T3 sequence (Q14524 whole entry): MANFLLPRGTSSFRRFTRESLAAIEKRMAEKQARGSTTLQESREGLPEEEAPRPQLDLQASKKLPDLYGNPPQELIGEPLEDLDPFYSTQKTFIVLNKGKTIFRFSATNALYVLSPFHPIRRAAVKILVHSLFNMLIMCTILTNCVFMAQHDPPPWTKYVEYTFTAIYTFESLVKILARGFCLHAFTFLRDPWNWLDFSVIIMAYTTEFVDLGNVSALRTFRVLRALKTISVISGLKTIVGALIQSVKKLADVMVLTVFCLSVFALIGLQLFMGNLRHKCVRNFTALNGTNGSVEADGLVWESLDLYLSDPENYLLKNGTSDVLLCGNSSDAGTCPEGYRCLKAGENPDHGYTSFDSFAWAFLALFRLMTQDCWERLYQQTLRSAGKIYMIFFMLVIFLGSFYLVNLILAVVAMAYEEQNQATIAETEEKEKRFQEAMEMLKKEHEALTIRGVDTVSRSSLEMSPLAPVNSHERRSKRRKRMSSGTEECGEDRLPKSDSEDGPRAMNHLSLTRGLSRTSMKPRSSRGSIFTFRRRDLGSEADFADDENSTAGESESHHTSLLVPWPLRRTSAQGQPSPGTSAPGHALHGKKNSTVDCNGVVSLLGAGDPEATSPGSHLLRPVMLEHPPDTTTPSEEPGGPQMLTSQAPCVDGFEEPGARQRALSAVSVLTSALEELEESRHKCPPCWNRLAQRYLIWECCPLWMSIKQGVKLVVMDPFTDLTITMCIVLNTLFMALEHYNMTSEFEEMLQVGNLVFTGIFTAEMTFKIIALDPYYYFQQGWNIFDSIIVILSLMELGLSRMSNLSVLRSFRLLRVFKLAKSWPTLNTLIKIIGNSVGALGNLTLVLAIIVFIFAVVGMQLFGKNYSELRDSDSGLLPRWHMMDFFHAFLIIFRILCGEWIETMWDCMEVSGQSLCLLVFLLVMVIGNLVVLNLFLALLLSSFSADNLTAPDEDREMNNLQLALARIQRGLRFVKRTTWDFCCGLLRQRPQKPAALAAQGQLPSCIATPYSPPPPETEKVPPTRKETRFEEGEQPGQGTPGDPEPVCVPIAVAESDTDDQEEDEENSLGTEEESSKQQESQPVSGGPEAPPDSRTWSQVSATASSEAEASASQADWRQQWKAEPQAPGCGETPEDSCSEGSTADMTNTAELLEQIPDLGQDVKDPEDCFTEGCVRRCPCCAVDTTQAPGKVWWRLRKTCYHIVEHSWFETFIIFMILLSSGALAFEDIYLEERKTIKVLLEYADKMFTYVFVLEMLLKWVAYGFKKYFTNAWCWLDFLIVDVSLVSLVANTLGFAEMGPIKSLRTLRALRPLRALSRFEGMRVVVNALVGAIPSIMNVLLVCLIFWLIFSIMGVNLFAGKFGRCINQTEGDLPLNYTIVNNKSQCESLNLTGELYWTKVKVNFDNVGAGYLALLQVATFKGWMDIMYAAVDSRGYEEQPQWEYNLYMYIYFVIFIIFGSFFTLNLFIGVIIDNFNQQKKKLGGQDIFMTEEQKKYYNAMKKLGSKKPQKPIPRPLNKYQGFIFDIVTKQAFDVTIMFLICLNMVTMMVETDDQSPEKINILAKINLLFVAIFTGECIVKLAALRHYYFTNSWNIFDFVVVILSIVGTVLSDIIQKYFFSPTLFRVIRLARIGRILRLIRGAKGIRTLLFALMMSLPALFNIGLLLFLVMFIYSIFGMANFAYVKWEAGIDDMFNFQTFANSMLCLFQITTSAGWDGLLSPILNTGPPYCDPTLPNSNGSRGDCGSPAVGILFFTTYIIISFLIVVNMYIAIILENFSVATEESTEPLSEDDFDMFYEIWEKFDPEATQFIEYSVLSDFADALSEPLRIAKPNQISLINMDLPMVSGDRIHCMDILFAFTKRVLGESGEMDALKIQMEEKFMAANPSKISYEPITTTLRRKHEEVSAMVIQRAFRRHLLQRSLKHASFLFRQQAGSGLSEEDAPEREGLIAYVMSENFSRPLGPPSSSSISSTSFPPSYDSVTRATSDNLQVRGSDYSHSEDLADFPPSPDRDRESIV
Chain of Dopamine transporter (Q01959 whole entry): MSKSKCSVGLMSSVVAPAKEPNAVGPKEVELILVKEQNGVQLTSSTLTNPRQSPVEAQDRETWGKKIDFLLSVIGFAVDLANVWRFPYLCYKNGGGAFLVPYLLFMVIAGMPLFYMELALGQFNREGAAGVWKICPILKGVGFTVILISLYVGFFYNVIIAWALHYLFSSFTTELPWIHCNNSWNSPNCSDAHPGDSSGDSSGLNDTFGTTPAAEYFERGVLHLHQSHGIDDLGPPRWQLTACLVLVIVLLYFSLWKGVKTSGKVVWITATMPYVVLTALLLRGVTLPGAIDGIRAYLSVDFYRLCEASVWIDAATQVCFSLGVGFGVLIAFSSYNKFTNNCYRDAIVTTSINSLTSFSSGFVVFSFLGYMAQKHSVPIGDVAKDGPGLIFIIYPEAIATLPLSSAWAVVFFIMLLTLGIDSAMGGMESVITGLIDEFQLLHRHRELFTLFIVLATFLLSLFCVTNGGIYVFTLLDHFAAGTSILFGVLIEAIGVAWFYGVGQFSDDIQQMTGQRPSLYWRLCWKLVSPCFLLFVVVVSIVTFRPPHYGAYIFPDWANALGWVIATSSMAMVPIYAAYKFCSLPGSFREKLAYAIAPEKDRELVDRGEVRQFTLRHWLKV
T4 sequence (P20813 whole entry): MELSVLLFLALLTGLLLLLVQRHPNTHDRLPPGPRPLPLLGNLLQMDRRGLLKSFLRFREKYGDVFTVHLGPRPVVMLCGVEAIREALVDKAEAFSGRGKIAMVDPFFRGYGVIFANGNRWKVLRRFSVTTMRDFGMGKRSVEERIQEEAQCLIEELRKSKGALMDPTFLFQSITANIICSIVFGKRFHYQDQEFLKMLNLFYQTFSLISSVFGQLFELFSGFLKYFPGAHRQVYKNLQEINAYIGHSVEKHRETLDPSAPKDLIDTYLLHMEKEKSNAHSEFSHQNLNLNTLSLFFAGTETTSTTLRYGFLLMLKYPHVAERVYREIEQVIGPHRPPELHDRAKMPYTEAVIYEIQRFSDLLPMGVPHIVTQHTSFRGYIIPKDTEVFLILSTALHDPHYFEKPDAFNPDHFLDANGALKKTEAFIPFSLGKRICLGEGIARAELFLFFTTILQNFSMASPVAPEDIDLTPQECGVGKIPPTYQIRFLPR
Chain of S. aureus DNA gyrase (P0A0K8 whole entry): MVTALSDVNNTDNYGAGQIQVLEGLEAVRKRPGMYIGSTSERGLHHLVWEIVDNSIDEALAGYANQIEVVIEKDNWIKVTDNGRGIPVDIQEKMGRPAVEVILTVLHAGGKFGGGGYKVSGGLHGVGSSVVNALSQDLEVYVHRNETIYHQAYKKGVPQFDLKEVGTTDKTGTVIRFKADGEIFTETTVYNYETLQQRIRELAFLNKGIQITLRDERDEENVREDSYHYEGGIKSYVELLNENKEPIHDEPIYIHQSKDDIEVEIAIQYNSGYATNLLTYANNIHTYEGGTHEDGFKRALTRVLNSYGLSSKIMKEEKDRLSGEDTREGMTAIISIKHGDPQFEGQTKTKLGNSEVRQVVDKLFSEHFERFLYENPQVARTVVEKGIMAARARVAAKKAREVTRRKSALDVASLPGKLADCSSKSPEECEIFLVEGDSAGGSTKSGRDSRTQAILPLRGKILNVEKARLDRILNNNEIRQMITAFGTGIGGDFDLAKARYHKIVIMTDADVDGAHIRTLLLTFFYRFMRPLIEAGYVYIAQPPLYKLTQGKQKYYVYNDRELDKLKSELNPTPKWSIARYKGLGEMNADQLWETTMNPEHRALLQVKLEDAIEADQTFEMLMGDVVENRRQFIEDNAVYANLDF
Chain of S. aureus DNA gyrase (P20831 whole entry): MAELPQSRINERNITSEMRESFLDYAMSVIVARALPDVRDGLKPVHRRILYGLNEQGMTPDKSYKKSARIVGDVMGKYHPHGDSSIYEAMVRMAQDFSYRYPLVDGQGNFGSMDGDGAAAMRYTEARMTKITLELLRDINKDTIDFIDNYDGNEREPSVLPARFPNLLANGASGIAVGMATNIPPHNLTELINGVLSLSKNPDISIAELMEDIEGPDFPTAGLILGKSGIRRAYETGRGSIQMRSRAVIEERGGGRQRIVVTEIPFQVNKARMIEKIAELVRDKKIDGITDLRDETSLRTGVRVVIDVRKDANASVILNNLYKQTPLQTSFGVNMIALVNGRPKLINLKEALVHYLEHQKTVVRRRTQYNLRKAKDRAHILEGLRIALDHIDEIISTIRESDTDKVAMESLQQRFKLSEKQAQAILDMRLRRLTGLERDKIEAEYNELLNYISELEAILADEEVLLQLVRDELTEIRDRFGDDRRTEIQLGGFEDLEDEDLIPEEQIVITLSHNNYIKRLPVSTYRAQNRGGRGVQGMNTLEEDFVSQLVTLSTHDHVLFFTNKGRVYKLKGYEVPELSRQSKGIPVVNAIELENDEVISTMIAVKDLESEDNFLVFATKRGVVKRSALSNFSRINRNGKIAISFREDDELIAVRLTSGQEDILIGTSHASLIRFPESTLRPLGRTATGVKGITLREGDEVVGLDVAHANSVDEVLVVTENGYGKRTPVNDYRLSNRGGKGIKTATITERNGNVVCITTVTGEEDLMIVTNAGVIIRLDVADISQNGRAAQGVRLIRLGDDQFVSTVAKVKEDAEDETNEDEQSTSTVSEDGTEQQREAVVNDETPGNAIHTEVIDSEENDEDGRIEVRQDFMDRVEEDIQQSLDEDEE

As a reminder, the IC50 is the concentration that inhibits the measured activity by half. One may read the inhibition as the drop in the measured response relative to a control, in per cent. Broadly, the MIC is the least concentration at which growth counts as inhibited. Consider `COc1ccc2ncc(F)c(CC[C@@]3(O)CO[C@@H]4[C@@H](NCc5cc6c(cn5)OCCO6)CO[C@@H]43)c2n1` [Compound 6, (3R, 3aS,6S,6aR)-6-(((2,3-dihydro-[1,4]dioxino[2,36-c]pyridin-7-yl)methyl)amnino)-3-(2-(3-fluoro-6-methoxy-1,5-naphthyridin-4-yl)ethyl)hexahydrofuro[3,2-b]furan-3-ol], for which, in [1], the IC50 is 530 nM. The inhibition at 100 µM in [2] came to 96%; in series [3] (100 μM) it was 22.1%; in [4] (setting [10]) it was 31.9%; in series [4] (setting [11]), 29.7%. For the same molecule, the results for the inhibition at 3 µM in series [3] (3 μM), in series [4] (setting [10]) and in series [4] (setting [11]) were -2.9%, 8.3% and 6.9%, respectively. Also, the figures for the inhibition at 30 µM in [3] (30 μM), in [4] (setting [10]) and in [4] (setting [11]) were 1.5%, 19.6% and 18%, respectively. Moreover, the minimum inhibitory concentration (MIC) in [5] is 0.25 µg/mL (≈ 0.501 µM); in series [7] (CLSI broth microdilution, triplicate, read-out: MIC ATCC 29213), 1 to 4 µg/mL; in series [7] (same MIC expressed in μM, read-out: MIC for S. aureus ATCC 29213), 2 to 8 µM; in [9], ≤ 0.12 µg/mL. Also, the “Navi1.5 Late (agonist - activation of late current)” value is 3.4% in [6] (3 μM), 7.7% in [6] (30 μM) and 17.0% in series [6] (100 μM). For the same molecule, the CYP2B6 inhibition entry in series [8] is listed as “Less than 50%”.
